This is an account of results in US4127661A, “Piperazine alkanols” (Serdex - Societe d'Etudes, de Recherches, de Diffusion et …, priority 1976, dated 1978).

A word on the LD50: it is the dose at which mortality reaches 50%.

Data set [1] has as its system femoral artery. As to the kind of experiment: Vasodilator action in anesthetized dogs (femoral rate of flow, local peripheral resistance), 5 mg/kg i.v. The format is in vivo. To be noted: 5 mg/kg intravenously. How it is done:
(§1) The tests were conducted with pentobarbital anesthetized dogs (35 mg/kg/i.v.) under artificial respiration with pentobarbital infusion (5 mg/kg/hr).
(§2) The carotid arterial pressure was recorded by means of an electromagnetic capsule connected to the carotid artery. From said determination were calculated the mean blood pressure, the systolic pressure, the diastolic pressure and the pulse pressure.
(§3) The femoral rate of flow was recorded by means of an electromagnetic sensor placed around the femoral artery. Local peripheral resistance was calculated from said parameters.
The compounds of the formula (I) were administered intravenously at a dosage of 5 mg/kg. Two tests were conducted with each compound.

Data set [2] has as its system femoral artery. As to the kind of experiment: Peripheral action of the compounds of Examples 1, 2 and 4 (femoral rate of flow, local peripheral resistance, blood pressure), 2.5 mg/kg. The format is in vivo, dogs. To be noted: for Femoral rate of flow: increase; for Local peripheral resistance: at 30mn, decrease. How it is done: as §1, §2, §3
A further data set can be described thus: Acute toxicity, oral. To be noted: rat, in vivo, single administration, fasted male Sprague Dawley rats, after 14 days, p = 0.05, Litchfield and Wilcoxon. How it is done: Acute toxicity was studied orally in male Sprague Dawley rats kept fasting 24 hours prior to the test, distributed in homogeneous groups of 10 animals each.
The animals were given a single administration of the test materials and were kept under observation during 14 days.
The LD50 were determined after 14 days at a probability threshold of p = 0.05, according to the method of Litchfield and Wilcoxon.

Where a name gives a salt, the structure may show the parent alone.

For `CC(O)C(c1ccccc1)N1CCN(CCOc2ccccc2)CC1` (stereo not shown) [Example 2, 1-[N-(2-phenoxy-1-ethyl)piperazino]-1-phenyl-2-propanol], in the data set with femoral artery [1], the “assessment among the compounds tested for peripheral vasodilator activity” value is “particularly valuable”. Besides, the “Femoral rate of flow” value in the data set on femoral artery [2] (30mn) is listed as over 15%; with femoral artery [2] (on injection (injec.)) it was over 100%. The Local peripheral resistance in the data set with femoral artery [2] is on record as 15%. The compound further showed an LD50 at 336 h in “Acute toxicity, oral” of 250 mg/kg.
`CC(=O)C(c1ccccc1)N1CCN(CCOc2ccccc2)CC1` (stereo not shown) [Example 1, 1-[N-(2-phenoxy-1-ethyl)piperazino]-1-phenylacetone]: the “assessment among the compounds tested for peripheral vasodilator activity” value with femoral artery [1] is given as “particularly valuable”. In addition, the “Femoral rate of flow” value with femoral artery [2] (1 hour) is over 25%. The compound further came in with a Local peripheral resistance with femoral artery [2] of 20%. Moreover, in “Acute toxicity, oral”, the LD50 at 336 h was determined as 800 mg/kg.
The matching figures for `CCC(O)C(c1ccccc1)N1CCN(CCOc2ccccc2C)CC1` (stereo not shown) [Example 4, 1-(N-[2-(2-methyl-1-phenoxy)-1-ethyl]piperazino)-1-phenyl-2-butanol dihydrochloride]: “particularly valuable”, over 30%, 30% and 700 mg/kg.
